# Laboratory results from PMC7279002, “Novel 3′-Substituted-1′,2′,4′-Oxadiazole Derivatives of 18βH-Glycyrrhetinic Acid and Their O-Acylated Amidoximes: Synthesis and Evaluation of Antitumor and Anti-Inflammatory Potential In Vitro and In Vivo” (International Journal of Molecular Sciences, 2020).
# Experiments:
# murine melanoma B16 = assay: MTT cytotoxicity assay, 48 h; assay type: cell-based
# How it was run: (§1)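 Cells were seeded at 10^4 per well, grown 24 h, then exposed to derivatives (0.5–50 µM, DMSO vehicle) for 48 h at 37 °C, 5% CO2 in DMEM/10% FBS. Viability was read by MTT (0.5 mg/mL final, 2 h; A570/620). IC50 was the concentration reducing A570 to 50% of control, from dose–response curves.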
# [1] = tested on: human duodenal carcinoma HuTu-80; assay: MTT cytotoxicity assay, 48 h; assay type: cell-based
# How it was run: as §1
# [2] = tested on: human lung adenocarcinoma A549; assay: MTT cytotoxicity assay, 48 h; assay type: cell-based; settings: Homo sapiens, A549; MTT, 48 h
# How it was run: as §1
# [3] = tested on: human cervical carcinoma KB-3-1; assay: MTT cytotoxicity assay, 48 h; assay type: cell-based
# How it was run: as §1
# [4] = tested on: nontransformed human fibroblasts hFF3; assay: MTT cytotoxicity assay, 48 h; assay type: cell-based; settings: Homo sapiens, HFF-3, read-out: IC50, µM Fibroblast hFF3
# How it was run: as §1
# [5] = tested on: human cervical carcinoma HeLa; assay: MTT cytotoxicity assay, 48 h; assay type: cell-based
# How it was run: as §1
# B16 melanoma = assay: Metastatic model of murine B16 melanoma in C57Bl/6 mice; assay type: in vivo; settings: five injections; for decrease of the numbers of surface metastases in the lungs: day 14
# Experimental: To generate a metastatic model of tumor progression, 10^5 B16 melanoma cells suspended in 0.2 mL of saline buffer were inoculated into the lateral tail vein of C57Bl/6 mice. On day 4 after tumor transplantation, mice were divided into three groups (n = 9 per group): (1) mice without treatment (control); (2) mice who received intraperitoneal (i.p.) injections of 10% Tween-80 (vehicle); and (3) mice who received i.p. injections of 5f in 10% Tween-80 at a dose of 50 mg/kg. The treatment was carried out three times a week. The total number of injections was five. Mice were sacrificed on day 14 after B16 melanoma transplantation and the lungs were collected for calculation of surface metastases.
# To study the antimetastatic action of 5f, evaluation of surface metastases in lungs of B16 melanoma bearing mice was carried out. Surface metastases in the lungs were counted using a binocular microscope. Inhibition of metastases development was assessed using the metastasis inhibition index (MII), calculated according to the formula: MII=(∑n(N¯control−Nn)×100% /N¯control)/n, where N is the number of surface metastases and n is the number of mice in the analyzed group. The MII of the control group was taken as 0% and the MII reflecting the absence of metastases was taken as 100%.
smiles,measurement,setting,value
"CC1(C)C2CC[C@]3(C)C(C(=O)C=C4[C@@H]5C[C@@](C)(c6nc(-c7ccccn7)no6)CC[C@]5(C)CC[C@]43C)[C@@]2(C)CC[C@@H]1O (stereo partly drawn) [Compound 5f, 30-nor-3β-hydroxy-11-oxo-20-(3′-(pyridin-2′′-yl)-1′,2′,4′-oxadiazol-5′-yl)-18βH-olean-12-en]",Selectivity index: B16,murine melanoma B16; IC50 in hFF3 / IC50 in B16,> 5.3
same,IC50,"murine melanoma B16; Mus musculus, MTT, 48 h",9.4 ± 0.4 µM
same,IC50,"[1]; Homo sapiens, HuTu80, MTT, 48 h, read-out: IC50, µM Duodenum HuTu-80",3.8 ± 0.3 µM
same,Selectivity index: HuTu-80,[1]; IC50 in hFF3 / IC50 in HuTu-80,> 13.2
same,IC50,[2],> 50 µM
same,IC50,"[3]; Homo sapiens, KB 3-1, MTT, 48 h, read-out: IC50, µM Cervix KB-3-1",4.7 ± 0.1 µM
same,Selectivity index: KB-3-1,[3]; IC50 in hFF3 / IC50 in KB-3-1,> 10.6
same,IC50,[4],> 50 µM
same,IC50,"[5]; Homo sapiens, HeLa, MTT, 48 h, read-out: IC50, µM Cervix HeLa",3.6 ± 0.5 µM
same,Selectivity index: HeLa,[5]; IC50 in hFF3 / IC50 in HeLa,> 13.9
same,mice with kidney metastases,B16 melanoma; 50 mg/kg i.p.,2/9
same,mice with liver metastases,B16 melanoma; 50 mg/kg i.p.,1/9
same,decrease of the numbers of surface metastases in the lungs,"B16 melanoma; 50 mg/kg i.p., compared to untreated control animals",4.5 times
same,decrease of the numbers of surface metastases in the lungs,"B16 melanoma; 50 mg/kg i.p., compared to vehicle-treated animals",3.4 times
same,metastasis inhibition index (MII),"B16 melanoma; 50 mg/kg i.p., relative to untreated control",77.7 ± 4.7%
same,suppression of metastasis growth compared to the vehicle-treated control,B16 melanoma; 50 mg/kg,70%
